{
  "source": "patent US20140219999A1",
  "about": "“TREATMENT OF COLON CANCER USING COMPLEMENT INHIBITORS” (priority 2011, published 2014)",
  "key": {"[1]": {"test_system": "B6.Apc^Min/+ model of intestinal neoplasia", "experiment": "Polyp number and cross sectional polyp area in B6.Apc^Min/+ mice treated with C5aR antagonist on HFCoco diet", "type": "in vivo, mouse", "details": "1 mg/kg subcutaneously every other day for 30 days", "description": "B6.Apc^Min/+ is a mouse model for intestinal neoplasia that carry a mutation in the Apc gene similar to that found in over 85% of sporadic colon cancer cases in humans. The APC mutation results in improper binding of β-catenin to the degradation complex and models the mutation observed in most sporadic human colon cancer tumors. B6.Apc^Min/+ mice develop 50-80 intestinal polyps in the small intestine by 120 days of age (Heijstek et al., 2005, Digest Surg. 22: 16-25). The APC amino acid sequence is 90% identical to that of the human APC.\nB6.Apc^Min/+ and the CCSs (A2.Apc^Min/+, A7.Apc^Min/+, A9.Apc^Min/+, A17.Apc^Min/+, and A19.Apc^Min/+) along with the corresponding wild-type controls (B6, B6.A2, B6.A7, B6.A9, B6.A17 and B6.A19, respectively) were born and maintained on the standard 5010 diet until 30 days of age. Male mice were genotyped for the APC mutation using DNA that was purified from tail tissue taken at weaning. […] Body weight and length (to calculate BMI) as well as epidydimal fat pad mass were measured at the final time point.\nBody weight and length were measured to calculate body mass index (BMI). Polyp number and polyp size from the small and large intestine were measured. […] The large intestine was excised and analyzed as one region (LI-1). […]"}, "[2]": {"test_system": "activated AKT (pS473), IKK (pS176) and NFκB (pS536)", "experiment": "Western analysis of intestinal tissue of treated B6.Apc^Min/+ mice (NFκB signaling)", "type": "in vivo, mouse", "details": "after 30 days on HFCoco diet and treatment; compared to control inhibitor", "description": "To test the function of this reduction in polyp number in mice treated with the C5aR inhibitor, intestinal tissues were collected and used to extract RNA and protein for expression and western analysis, respectively."}},
  "data": [
    {"substance": "Acetyl-Phe-[Orn-Pro-D-cyclohexylalanine-Trp-Arg] [PMX-53]", "values": [
      {"measurement": "cross sectional polyp area", "setting": "[1]", "result": "significantly reduced"},
      {"measurement": "polyp number", "setting": "[1]; compared to untreated mice or mice injected with control inhibitor", "result": "significant reduction"},
      {"measurement": "activated AKT (pS473) protein level in intestine", "setting": "[2]", "result": "significant reduction"},
      {"measurement": "activated IKK (pS176) protein level in intestine", "setting": "[2]", "result": "significant reduction"},
      {"measurement": "activated NFκB (pS536) protein level in intestine", "setting": "[2]", "result": "significant reduction"}
    ]}
  ]
}
